Assay results reported in ChEMBL document CHEMBL3792317, “Novel tetrazoloquinoline-rhodanine conjugates: Highly efficient synthesis and biological evaluation” (Bioorg Med Chem Lett, 2016).
Converted amounts (≈) assume the structure as drawn.

Tests used:
Escherichia coli = assay: Antibacterial activity against Escherichia coli after 18 hrs by broth dilution method; type: functional
Pseudomonas fluorescens = assay: Antibacterial activity against Pseudomonas fluorescens after 18 hrs by broth dilution method; type: functional
Staphylococcus aureus = assay: Antibacterial activity against Staphylococcus aureus after 18 hrs by broth dilution method; type: functional
Bacillus subtilis = assay: Antibacterial activity against Bacillus subtilis after 18 hrs by broth dilution method; type: functional
[1] = test system: Mycobacterium tuberculosis; assay: Antitubercular activity against Mycobacterium tuberculosis H37Ra ATCC 25177 incubated for 40 mins by XTT Reduction Menadione Assay; type: functional; settings: H37Ra ATCC 25177, 40 min
[2] = Antitubercular activity against Mycobacterium bovis BCG ATCC 35743 incubated for 40 mins by XTT Reduction Menadione Assay; type: functional, Mycobacterium bovis BCG str. ATCC 35743; settings: Mycobacterium tuberculosis variant bovis BCG, ATCC 35743, 40 min
Candida albicans = assay: Antifungal activity against Candida albicans NCIM 3471 after 48 hrs by agar cup plate method; type: functional; settings: NCIM 3471, 48 h
Fusarium oxysporum = assay: Antifungal activity against Fusarium oxysporum NCIM 1332 after 48 hrs by agar cup plate method; type: functional; settings: NCIM 1332, 48 h
Aspergillus flavus = assay: Antifungal activity against Aspergillus flavus NCIM 539 after 48 hrs by agar cup plate method; type: functional; settings: NCIM 539, 48 h
Aspergillus niger = assay: Antifungal activity against Aspergillus niger NCIM 1196 after 48 hrs by agar cup plate method; type: functional; settings: NCIM 1196, 48 h
Cryptococcus neoformans = assay: Antifungal activity against Cryptococcus neoformans NCIM 576 after 48 hrs by agar cup plate method; type: functional; settings: NCIM 576, 48 h
[3] = test system: Mycobacterium tuberculosis; assay: Antitubercular activity against Mycobacterium tuberculosis H37Ra ATCC 25177 at 30 ug/ml incubated for 40 mins by XTT Reduction Menadione Assay; type: functional; settings: H37Ra ATCC 25177, 40 min, read-out: GI
[4] = test system: Mycobacterium tuberculosis; assay: Antitubercular activity against Mycobacterium tuberculosis H37Ra ATCC 25177 at 10 ug/ml incubated for 40 mins by XTT Reduction Menadione Assay; type: functional; settings: H37Ra ATCC 25177, 40 min, read-out: GI
[5] = test system: Mycobacterium tuberculosis; assay: Antitubercular activity against Mycobacterium tuberculosis H37Ra ATCC 25177 at 3 ug/ml incubated for 40 mins by XTT Reduction Menadione Assay; type: functional; settings: H37Ra ATCC 25177, 40 min, read-out: GI
[6] = test system: Mycobacterium bovis BCG str. ATCC 35743; assay: Antitubercular activity against dormant Mycobacterium bovis BCG ATCC 35743 at 30 ug/ml incubated for 40 mins by XTT Reduction Menadione Assay; type: functional
[7] = test system: Mycobacterium bovis BCG str. ATCC 35743; assay: Antitubercular activity against dormant Mycobacterium bovis BCG ATCC 35743 at 10 ug/ml incubated for 40 mins by XTT Reduction Menadione Assay; type: functional
[8] = test system: Mycobacterium bovis BCG str. ATCC 35743; assay: Antitubercular activity against dormant Mycobacterium bovis BCG ATCC 35743 at 3 ug/ml incubated for 40 mins by XTT Reduction Menadione Assay; type: functional
[9] = test system: Mycobacterium tuberculosis; assay: Antitubercular activity against dormant Mycobacterium tuberculosis H37Ra ATCC 25177 incubated for 40 mins by XTT Reduction Menadione Assay; type: functional; settings: H37Ra ATCC 25177, 40 min
[10] = test system: Mycobacterium tuberculosis; assay: Antitubercular activity against active Mycobacterium tuberculosis H37Ra ATCC 25177 incubated for 40 mins by XTT Reduction Menadione Assay; type: functional; settings: H37Ra ATCC 25177, 40 min
[11] = (§1) Cytotoxicity against human HeLa cells after 48 hrs by MTT assay; type: cell-based; settings: HeLa cells
HeLa = assay: as §1; type: cell-based; settings: hela, 48 h
[12] = Cytotoxicity against human PANC1 cells after 48 hrs by MTT assay; type: cell-based, PANC-1; settings: for GI50 at 48 h: PANC1 cells; for GI90: panc-1, 48 h
[13] = (§2) Cytotoxicity against human A549 cells after 48 hrs by MTT assay; type: cell-based; settings: A549 cells
A549 = assay: as §2; type: cell-based; settings: a549, 48 h
[14] = Cytotoxicity against human THP1 cells after 48 hrs by MTT assay; type: cell-based, THP-1; settings: for GI50 at 48 h: THP1 cells; for GI90: thp-1, 48 h

Row | SMILES | MIC (Escherichia coli) [µg/mL] | MIC (Pseudomonas fluorescens) [µg/mL] | MIC (Staphylococcus aureus) [µg/mL] | MIC (Bacillus subtilis) [µg/mL] | MIC [1] [µg/mL] | MIC [2] [µg/mL] | MIC (Candida albicans) [µg/mL] | MIC (Fusarium oxysporum) [µg/mL] | MIC (Aspergillus flavus) [µg/mL] | MIC (Aspergillus niger) [µg/mL] | MIC (Cryptococcus neoformans) [µg/mL] | inhibition of growth at 30 µg/mL [3] [%] | inhibition of growth at 10 µg/mL [4] [%] | inhibition of growth at 3 µg/mL [5] [%] | growth inhibition (GI) [6] [%] | growth inhibition (GI) [7] [%] | growth inhibition (GI) [8] [%] | further results
1 | CC1(C)S[C@@H]2[C@H](NC(=O)[C@H](N)c3ccccc3)C(=O)N2[C@H]1C(=O)O [AMPICILLIN] | 1.46 (≈ 4.18 µM) | 4.36 (≈ 12.5 µM) | 1 (≈ 2.86 µM) | 10.3 (≈ 29.5 µM) |  |  |  |  |  |  |  |  |  |  |  |  |  | 
2 | Cc1ccc2c(c1)cc(/C=C1\SC(=S)NC1=O)c1nnnn12 | 167 (≈ 511 µM) | 223 (≈ 682 µM) | 159 (≈ 486 µM) | 174 (≈ 532 µM) | > 250 | > 250 | 150 (≈ 458 µM) | 25 (≈ 76.4 µM) | 100 (≈ 305 µM) | 25 (≈ 76.4 µM) | 25 (≈ 76.4 µM) | 10.8 | 23.7 | 21.9 | -32.7 | -28 | 8.79 | IC90 [9]: > 250 µg/mL; IC90 [10]: > 250 µg/mL; GI50 at 48 h [11]: > 100 µg/mL; GI90 (HeLa): > 100 µg/mL; GI50 at 48 h [12]: 42 µg/mL (≈ 128 µM); GI90 [12]: > 100 µg/mL; GI50 at 48 h [13]: 89.2 µg/mL (≈ 273 µM); GI90 (A549): 63.3 µg/mL (≈ 193 µM); GI50 at 48 h [14]: 63.3 µg/mL (≈ 193 µM); GI90 [14]: 63.3 µg/mL (≈ 193 µM)
3 | Cc1cccc2cc(/C=C3\SC(=S)N(CCC(=O)O)C3=O)c3nnnn3c12 |  |  |  |  | 192 (≈ 481 µM) | 198 (≈ 495 µM) | 100 (≈ 250 µM) | 100 (≈ 250 µM) | 50 (≈ 125 µM) | 75 (≈ 188 µM) | 50 (≈ 125 µM) | 36.9 | 15.5 | -0.39 | -8.69 | -11.4 | -8.42 | 
4 | O=C(O)CCN1C(=O)/C(=C/c2cc3ccccc3n3nnnc23)SC1=S |  |  |  |  | 174 (≈ 451 µM) | 182 (≈ 473 µM) | 100 (≈ 259 µM) | 125 (≈ 324 µM) | 150 (≈ 389 µM) | 150 (≈ 389 µM) | 175 (≈ 454 µM) | 48.9 | 17.7 | -1.77 | 47.9 | 21.6 | 18.8 | 
5 | O=C(O)CN1C(=O)/C(=C/c2cc3ccccc3n3nnnc23)SC1=S | 178 (≈ 480 µM) | 182 (≈ 489 µM) | 151 (≈ 408 µM) | 124 (≈ 333 µM) | > 250 | > 250 | 50 (≈ 135 µM) | 50 (≈ 135 µM) | 125 (≈ 337 µM) | 125 (≈ 337 µM) | 150 (≈ 404 µM) | 1.49 | -2.04 | 12.2 | -12.2 | -28.9 | -52.6 | 
6 | Cc1cccc2cc(/C=C3\SC(=S)N(CC(=O)O)C3=O)c3nnnn3c12 | 149 (≈ 387 µM) | 162 (≈ 420 µM) | 106 (≈ 274 µM) | 135 (≈ 351 µM) | 93.2 (≈ 242 µM) | 86 (≈ 223 µM) | 25 (≈ 64.9 µM) | 50 (≈ 130 µM) | 50 (≈ 130 µM) | 100 (≈ 259 µM) | 125 (≈ 324 µM) | 28.2 | 36.8 | 44.5 | -58.8 | -46.2 | -41.4 | 
7 | O=C1NC(=S)S/C1=C\c1cc2ccccc2n2nnnc12 | 212 (≈ 677 µM) | 186 (≈ 593 µM) | 153 (≈ 487 µM) | 204 (≈ 652 µM) | 162 (≈ 515 µM) | 168 (≈ 536 µM) | 150 (≈ 479 µM) | 150 (≈ 479 µM) | 125 (≈ 399 µM) | 100 (≈ 319 µM) | 75 (≈ 239 µM) | 51.8 | 71 | 34 | -15.7 | -5.07 | -8.27 | IC90 [9]: 162 µg/mL (≈ 515 µM); IC90 [10]: > 250 µg/mL; GI50 at 48 h [11]: > 100 µg/mL; GI90 (HeLa): > 100 µg/mL; GI50 at 48 h [12]: > 100 µg/mL; GI90 [12]: > 100 µg/mL; GI50 at 48 h [13]: 79.2 µg/mL (≈ 253 µM); GI90 (A549): > 100 µg/mL; GI50 at 48 h [14]: > 100 µg/mL; GI90 [14]: > 100 µg/mL
